# “Also recorded” adds a separate entry of the source.
# Key:
# Type in all cases: cell-based, mouse
# [1] = system: BV2 cells; assay: In vitro phagocytosis assay of pH-dependent fluorescent particles; settings: for Phagocytosis of pH-sensitive fluorescent beads by BV2 cells: WT BV2, time-lapse microscopy 24 hours, sialidase 400 nM 1 hour, 3Fax-Neu5Ac 32 uM; for Phagocytosis of pH-dependent fluorescent particles by BV2 cells: wild-type BV2, no serum or young serum prior to feeding, monitored over 24 hours
# Protocol: (§1) For in vitro phagocytosis assays, cells were split into a 24-well plate 8-24 hours prior to serum treatment at a density of 50,000 cells/well. Following specific treatments, wells were washed twice with PBS and fed pHrodo-labeled 3 μm amino-coated polystyrene particles (Polysciences) at a ratio of 10 particles per cell or crude myelin, isolated as previously described^47, at 1 mg/mL. pHrodo labeling was carried out as previously described to minimize background fluorescence^37. 4 phase and red fluorescent images per well were acquired every hour for 24 hours using the Incucyte S3 live cell analysis system (Essen Bioscience). For each time point, normalized phagocytosis was calculated using the following formula: red object area/phase confluence. To combine data from independent experiments, phagocytosis was calculated relative to control by setting phagocytosis at zero hours in the no serum control cell condition to 0, and this value at 24 hours to 1. Technical triplicates for each experiment were averaged, and the average of three independent experiments was reported.
# (§2) For sialidase treatment, cells were incubated with 400 nM Vibrio cholerae sialidase for 1 hour at 37° C. in serum-free DMEM following serum treatment and prior to feeding. 3Fax-Neu5Ac (R&D) was used as previously described^33. The inhibitor was used at a concentration of 32 μM serially diluted in DMSO and used at a final concentration of 0.1% DMSO in DMEM. 3Fax-Neu5Ac was added with serum treatments for 48 hours prior to phagocytosis assays, and replaced in the feeding medium.
# Cells were split into a 24-well plate 24 hours prior to feeding at a density of 50,000 cells/well in serum free medium. Following specific treatments, wells were washed twice with PBS and fed pHrodo-labeled 3 micron amino-coated polystyrene particles (Polysciences) at a ratio of 10 particles per cell. pHrodo labeling was carried out as previously described to minimize background fluorescence^37. 4 phase and red fluorescent images per well were acquired every hour for 24 hours using the Incucyte S3 live cell analysis system (Essen Bioscience). For each time point, normalized phagocytosis was calculated using the following formula: red object area/phase confluence. To combine data from independent experiments, phagocytosis relative to control was calculated by setting phagocytosis at zero hours in the control condition to 0, and this value at 24 hours to 1. Technical triplicates for each experiment were averaged, and the average of three independent experiments was identified.
# as §2, with “Cells” for “For sialidase treatment, cells”, “DMEM” for “DMEM following serum treatment and”, “phagocytosis.” for “feeding.”, “described^58.” for “described^33.”, “uM” for “μM”
# [2] = system: peritoneal macrophages; assay: Peritoneal macrophage phagocytosis of pH-dependent fluorescent latex particles; settings: aged (20-month-old) compared to young (2-month-old) macrophages; sialidase
# Protocol: as §1
# For sialidase treatment, cells were incubated with 400 nM Vibrio cholerae sialidase for 1 hour at 37° C. in serum-free DMEM following serum treatment and prior to feeding. 3Fax-Neu5Ac (R&D) was used as previously described^33. […]
# [3] = system: primary microglia; assay: Ex vivo microglial phagocytosis assay
# Protocol: Whole brain myelin-depleted single-cell suspensions were prepared as described above. Next, a rough estimation of microglia counts from each brain was determined by strictly gating a volume-designated aliquot of the suspensions by forward scatter/side scatter on a flow cytometer (BD Accuri C6). Each suspension was adjusted to contain equal numbers of microglia per unit volume. Then, single cell brain suspensions were treated with sialidase, a CD22 blocking antibody (R&D), or no treatment for 1 hour at 37° C. with periodic agitation. Treatments were washed out and cells were resuspended in FACS buffer containing pHrodo- or CypHer5E-conjugated particles at a ratio of 50 particles per microglia. The cell-particle mixture was incubated for 1-2 hours at 37° C. with periodic agitation. Phagocytosis was stopped by transferring the suspensions to ice, where the cells were stained with antibodies to distinguish microglia. Microglial phagocytosis was assessed by flow cytometry by pre-gating live CD11b+CD45lo cells and assessing pH dependent particle fluorescence within this population. The eating gate was determined using an unfed control, and confirmed by sorting an aliquot of the sample into noneating and eating populations by FACS followed by microscopic assessment.
# Whole brain myelin-depleted single-cell suspensions were prepared as described above. Next, a rough estimation of microglia counts from each brain was determined by strictly gating a volume-designated aliquot of the suspensions by forward scatter/side scatter on a flow cytometer (BD Accuri C6). Each suspension was adjusted to contain equal microglia per unit volume. Then, single cell brain suspensions were treated accordingly for 1 hour in serum free DMEM-F12 at 37° C. with periodic agitation. Treatments were washed out and cells were resuspended in FACS buffer containing pHrodo- or CypHer5E-conjugated particles at a ratio of 50 particles per microglia. The cell-particle mixture was incubated for 1-2 hours at 37° C. with periodic agitation. Phagocytosis was stopped by transferring the suspensions to ice, where the cells were stained with antibodies to distinguish microglia. Microglial phagocytosis was assessed by flow cytometry by pre-gating live CD11b+CD45lo cells and assessing pH-dependent particle fluorescence within this population. The eating gate was determined using an unfed control, and confirmed by sorting an aliquot of the sample into non-eating and eating populations by FACS followed by microscopic assessment.
# [4] = system: BV2 cells; assay: Lectin (SNA, MAA) staining of cell-surface sialic acid by flow cytometry; settings: WT BV2 cells pretreated with sialidase
# Source text: Antibodies to CD11b (clone M1/70, BioLegend) and CD45 (clone 30-F11, Biolegend) were used for microglia identification (CD11b+CD45lo). For primary microglia immunophenotyping, the following lectins and antibodies were used: biotinylated Sambucus nigra agglutinin (SNA, Vector Labs), biotinylated Maackia amurensis agglutinins (MAA-1 and MAA-2, Vector), biotinylated Erythrina cristagalli lectin (ECL, EY Labs), biotinylated wheat germ agglutinin (WGA, Vector), recombinant mouse Siglec-E (R&D), recombinant mouse Siglec-F (R&D), antibodies to mouse Siglec-1 (clone REA197, Miltenyi Biotec), CD22 (clone OX-97, Biolegend), Siglec-E (clone M1304A01, Biolegend), Siglec-F (clone ES22-10D8, Miltenyi Biotec), Siglec-G (clone SH1, BD Biosciences), Siglec-H (clone 551, Biolegend), CD33 (clone 9A11, eBioscience), Galectin-3 (clone M3/38, Biolegend). For immunostaining, cells were passed through a 100 μm strainer, blocked for 10 minutes on ice with mouse Fc-blocking reagent (BD), and stained for 30 minutes on ice in DPBS containing calcium and magnesium supplemented with 1% bovine serum albumin. […] Data was analyzed using FlowJo software (TreeStar).
# Antibodies to CD11b (clone M1/70, BioLegend) and CD45 (clone 30-F11, Biolegend) were used for microglia identification (CD11b+CD45lo). […] Data was analyzed using FlowJo software (TreeStar).
Compound,Phagocytosis of pH-sensitive fluorescent beads by BV2 cells [1],Phagocytosis of pH-dependent fluorescent particles by BV2 cells [1],"Engulfment of pH-dependent beads by BV2 cells (flow cytometry) ([1]; 1 hour of feeding, used to define eating gate)",Phagocytosis of pH-sensitive fluorescent beads by CD22 KO BV2 cells ([1]; CD22 KO BV2 + sialidase),Phagocytosis by peritoneal macrophages [2],Ex vivo phagocytosis by microglia from aged CD22−/− mice ([3]; aged (18 m.o.) CD22−/−),"Ex vivo phagocytosis of latex particles by aged microglia ([3]; aged WT mice, 1 hour pretreatment, flow cytometry)",Ex vivo phagocytosis by microglia from 12-month-old CD22−/− mice ([3]; relative to age-matched wild-type control microglia),Ex vivo phagocytosis of latex particles by young microglia ([3]; young (2-month-old) mice),SNA and MAA ligand expression on the cell surface [4]
"COC(=O)C1(OC(C)=O)OC([C@H](OC(C)=O)[C@@H](COC(C)=O)OC(C)=O)C(NC(C)=O)C(OC(C)=O)C1F (stereo partly drawn) [3Fax-Neu5Ac, reference compound]",promotes phagocytosis in BV2 cells,promoted phagocytosis in the no serum condition only,–,–,–,–,–,–,–,–
"C=C1[C@@H](C)[C@H]2[C@H](Cc3ccccc3)NC(=O)[C@]23[C@H](OC(C)=O)/C=C/[C@@](C)(O)C(=O)[C@@H](C)C/C=C/[C@H]3[C@@H]1O [cytochalasin D, reference compound]",–,–,actin polymerization is blocked preventing engulfment,–,–,–,–,–,–,–
sialidase: Sialidase from Vibrio cholerae expressed in Escherichia coli C600; removes cell-surface sialic acid,promotes phagocytosis in BV2 cells,promote phagocytosis in the absence of young serum,–,completely abrogated in the absence of CD22,increased phagocytosis dramatically in aged macrophages,had no effect in CD22−/− microglia,rescued phagocytosis in aged microglia; also recorded: promoted phagocytosis in WT microglia,reduced pro-phagocytic response to sialidase,did not enhance phagocytosis in already competent young microglia,reduce sialic acid ligands on the cell surface

# Reference: patent US11891442B2, “Compositions and methods for treating age-related diseases” (priority 2017, dated 2024)
